Measured values: US9072698B2, “Method for screening anti-cancer compounds inhibiting function of TM4SF5 and anti-cancer composition containing chalcone compounds” (Seoul National University Industry Foundation, priority 2006, dated 2015)
In brackets after ≈: the same amount, converted by molar mass.

What was measured:
Assay type in all cases: cell-based
[1] = tested on: HCT15 (colon adenocarcinoma); assay: In vitro cytotoxicity, sulforhodamine B (SRB) method, HCT15; conditions: Homo sapiens; HCT-15, SRB method; read-out: cytotoxicity (ED50) HCT-15
How it was run: (§1)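 Cells grown in RPMI 1640 with 10% FCS at 37 °C, 5% CO2 were exposed to compounds at 30, 10, 3, 1 and 0.3 μg/ml final, with DMSO below 0.5%. Cytotoxicity was read by the standard NCI sulforhodamine B protein-staining method.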

[2] = tested on: A-549 (lung carcinoma); assay: In vitro cytotoxicity, sulforhodamine B (SRB) method, A-549; conditions: Homo sapiens, A549; A-549, SRB method; read-out: cytotoxicity (ED50) A-549
How it was run: as §1

[3] = tested on: PC-3 (prostate adenocarcinoma); assay: In vitro cytotoxicity, sulforhodamine B (SRB) method, PC-3; conditions: Homo sapiens; PC-3, SRB method; read-out: cytotoxicity (ED50) PC-3
How it was run: as §1

Compound	IC50 [1]	IC50 [2]	IC50 [3]
O=C(/C=C/c1cc(O)ccc1O)c1ccccc1NS(=O)(=O)c1ccc(O)cc1 [Compound 59, 2′-(p-hydroxybenzenesulfonylamino)-2,5-dihydroxychalcone]	9 µg/mL (≈ 21.9 µM)	13 µg/mL (≈ 31.6 µM)	20 µg/mL (≈ 48.6 µM)
Cc1ccc(S(=O)(=O)Nc2ccc(C(=O)/C=C/c3ccc(O)cc3Cl)cc2)cc1 [Compound 83, 4′-(p-toluenebenzensulfonylamino)-2-chloro-4-hydroxychalcone]	15 µg/mL (≈ 35.1 µM)	11 µg/mL (≈ 25.7 µM)	14 µg/mL (≈ 32.7 µM)
O=C(/C=C/c1cccc(O)c1)c1ccc(OS(=O)(=O)c2ccc(O)cc2)cc1 [Compound 85, 4′-(p-hydroxybenzenesulfonate)-3-hydroxychalcone]	29 µg/mL (≈ 73.2 µM)	33 µg/mL (≈ 83.2 µM)	28 µg/mL (≈ 70.6 µM)
O=C(/C=C/c1ccc(O)cc1)c1ccc(NS(=O)(=O)c2ccccc2)cc1 [Compound 33, 4′-(benzensulfonylamino)-4-hydroxychalcone]	47 µg/mL (≈ 124 µM)	45 µg/mL (≈ 119 µM)	42 µg/mL (≈ 111 µM)
Cc1ccc(S(=O)(=O)Nc2ccc(C(=O)/C=C/c3ccccc3O)cc2)cc1 [Compound 3, 4′-(p-toluenesulfonylamino)-2-hydroxychalcone]	40 µg/mL (≈ 102 µM)	35 µg/mL (≈ 89 µM)	37 µg/mL (≈ 94 µM)
Cc1ccc(S(=O)(=O)Oc2ccc(C(=O)/C=C/c3ccc(O)cc3)cc2)cc1 [Compound 35, 4′-(p-toluenesulfonate)-4-hydroxychalcone]	51 µg/mL (≈ 129 µM)	47 µg/mL (≈ 119 µM)	57 µg/mL (≈ 145 µM)
O=C(/C=C/c1cc(O)ccc1O)c1cccc(NS(=O)(=O)c2ccc(O)cc2)c1 [Compound 55, 3′-(p-hydroxybenzenesulfonylamino)-2,5-dihydroxychalcone]	6 µg/mL (≈ 14.6 µM)	7 µg/mL (≈ 17 µM)	12 µg/mL (≈ 29.2 µM)
Nc1ccc(S(=O)(=O)Nc2ccc(C(=O)/C=C/c3ccc(O)c(O)c3)cc2)cc1 [Compound 78, 4′-(p-aminobenzensulfonylamino)-3,4-dihydroxychalcone]	5 µg/mL (≈ 12.2 µM)	10 µg/mL (≈ 24.4 µM)	7 µg/mL (≈ 17.1 µM)
O=C(/C=C/c1ccccc1O)c1ccc(OS(=O)(=O)c2cccc(O)c2)cc1 [Compound 89, 4′-(m-hydroxybenzenesulfonate)-2-hydroxychalcone]	24 µg/mL (≈ 60.5 µM)	37 µg/mL (≈ 93.3 µM)	33 µg/mL (≈ 83.2 µM)
O=C(/C=C/c1ccc(O)cc1O)c1cccc(NS(=O)(=O)c2cccc(O)c2)c1 [Compound 66, 3′-(m-hydroxybenzenesulfonylamino)-2,4-dihydroxychalcone]	11 µg/mL (≈ 26.7 µM)	11 µg/mL (≈ 26.7 µM)	13 µg/mL (≈ 31.6 µM)
O=C(/C=C/c1cc(O)ccc1O)c1ccc(OS(=O)(=O)c2ccc(O)cc2)cc1 [Compound 93, 4′-(p-hydroxybenzenesulfonate)-2,5-dihydroxychalcone]	6 µg/mL (≈ 14.5 µM)	8 µg/mL (≈ 19.4 µM)	14 µg/mL (≈ 33.9 µM)
O=C(/C=C/c1cccc(O)c1O)c1ccc(OS(=O)(=O)c2ccc(O)cc2)cc1 [Compound 91, 4′-(p-hydroxybenzenesulfonate)-2,3-dihydroxychalcone]	7 µg/mL (≈ 17 µM)	10 µg/mL (≈ 24.2 µM)	14 µg/mL (≈ 33.9 µM)
O=C(/C=C/c1cccc(O)c1O)c1ccc(NS(=O)(=O)c2ccc(O)cc2)cc1 [Compound 49, 4′-(p-hydroxybenzenesulfonylamino)-2,3-dihydroxychalcone]	8 µg/mL (≈ 19.4 µM)	6 µg/mL (≈ 14.6 µM)	14 µg/mL (≈ 34 µM)
Nc1ccccc1S(=O)(=O)Nc1ccc(C(=O)/C=C/c2ccc(O)c(O)c2)cc1 [Compound 80, 4′-(o-aminobenzensulfonylamino)-3,4-dihydroxychalcone]	13 µg/mL (≈ 31.7 µM)	11 µg/mL (≈ 26.8 µM)	23 µg/mL (≈ 56 µM)
Cc1ccc(S(=O)(=O)Nc2ccccc2C(=O)/C=C/c2ccc(O)c(O)c2)cc1 [Compound 47, 2′-(p-toluenesulfonylamino)-3,4-dihydroxychalcone]	8 µg/mL (≈ 19.5 µM)	11 µg/mL (≈ 26.9 µM)	17 µg/mL (≈ 41.5 µM)
O=C(/C=C/c1ccc(O)cc1)c1ccc(NS(=O)(=O)c2cccc(O)c2)cc1 [Compound 15, 4′-(m-hydroxybenzenesulfonylamino)-4-hydroxychalcone]	33 µg/mL (≈ 83.5 µM)	43 µg/mL (≈ 109 µM)	41 µg/mL (≈ 104 µM)
O=C(/C=C/c1cccc(O)c1)c1ccc(OS(=O)(=O)c2cccc(O)c2)cc1 [Compound 88, 4′-(m-hydroxybenzenesulfonate)-3-hydroxychalcone]	21 µg/mL (≈ 53 µM)	32 µg/mL (≈ 80.7 µM)	28 µg/mL (≈ 70.6 µM)
O=C(/C=C/c1cccc(O)c1)c1ccc(NS(=O)(=O)c2cccc(O)c2)cc1 [Compound 16, 4′-(m-hydroxybenzenesulfonylamino)-3-hydroxychalcone]	37 µg/mL (≈ 93.6 µM)	33 µg/mL (≈ 83.5 µM)	47 µg/mL (≈ 119 µM)
O=C(/C=C/c1ccc(O)cc1)c1ccc(OS(=O)(=O)c2ccc([N+](=O)[O-])cc2)cc1 [Compound 38, 4′-(p-nitrobenzenesulfonate)-4-hydroxychalcone]	52 µg/mL (≈ 122 µM)	57 µg/mL (≈ 134 µM)	47 µg/mL (≈ 110 µM)
O=C(/C=C/c1ccc(O)c(O)c1)c1ccccc1NS(=O)(=O)c1cccc(O)c1 [Compound 68, 2′-(m-hydroxybenzenesulfonylamino)-3,4-dihydroxychalcone]	6 µg/mL (≈ 14.6 µM)	8 µg/mL (≈ 19.4 µM)	10 µg/mL (≈ 24.3 µM)
O=C(/C=C/c1ccc(O)cc1O)c1ccccc1NS(=O)(=O)c1ccc(O)cc1 [Compound 58, 2′-(p-hydroxybenzenesulfonylamino)-2,4-dihydroxychalcone]	11 µg/mL (≈ 26.7 µM)	12 µg/mL (≈ 29.2 µM)	10 µg/mL (≈ 24.3 µM)
O=C(/C=C/c1cccc(O)c1)c1ccccc1NS(=O)(=O)c1ccc(O)cc1 [Compound 13, 2′-(p-hydroxybenzenesulfonylamino)-3-hydroxychalcone]	38 µg/mL (≈ 96.1 µM)	36 µg/mL (≈ 91 µM)	41 µg/mL (≈ 104 µM)
O=C(/C=C/c1ccc(O)c(O)c1)c1ccc(NS(=O)(=O)c2ccccc2)cc1 [Compound 81, 4′-(benzensulfonylamino)-3,4-dihydroxychalcone]	14 µg/mL (≈ 35.4 µM)	28 µg/mL (≈ 70.8 µM)	24 µg/mL (≈ 60.7 µM)
Cc1ccc(S(=O)(=O)Nc2ccc(C(=O)/C=C/c3ccc(O)c(O)c3)cc2)cc1 [Compound 42, 4′-(p-toluenesulfonylamino)-3,4-dihydroxychalcone]	7 µg/mL (≈ 17.1 µM)	10 µg/mL (≈ 24.4 µM)	18 µg/mL (≈ 44 µM)
Nc1ccc(S(=O)(=O)Oc2ccc(C(=O)/C=C/c3ccc(O)cc3)cc2)cc1 [Compound 39, 4′-(p-aminobenzenesulfonate)-4-hydroxychalcone]	39 µg/mL (≈ 98.6 µM)	37 µg/mL (≈ 93.6 µM)	38 µg/mL (≈ 96.1 µM)
O=C(/C=C/c1cccc(O)c1)c1cccc(NS(=O)(=O)c2ccc(O)cc2)c1 [Compound 10, 3′-(p-hydroxybenzenesulfonylamino)-3-hydroxychalcone]	30 µg/mL (≈ 75.9 µM)	30 µg/mL (≈ 75.9 µM)	32 µg/mL (≈ 80.9 µM)
O=C(/C=C/c1ccccc1O)c1cccc(NS(=O)(=O)c2ccc(O)cc2)c1 [Compound 11, 3′-(p-hydroxybenzenesulfonylamino)-2-hydroxychalcone]	39 µg/mL (≈ 98.6 µM)	38 µg/mL (≈ 96.1 µM)	41 µg/mL (≈ 104 µM)
